Consider two molecules from patent US11584741B2, “Crystalline forms of 4-(5-(4,7-dimethylbenzofuran-2-yl)-1,2,4-oxadiazol-3-yl)benzoic acid and processes for their preparation” (King's College London, priority 2016, dated 2023).

Values after ≈ are worked out from the molar mass of the structure shown.

Data set [1] concerns corticospinal tract (CST) of rats crushed at the C4 level. The data set is described as follows: Corticospinal tract (CST) crush at C4 in rats, agonist applied to the lateral ventricle. It counts as in vivo. The following applies: rat. The protocol: The results are illustrated in Borthwick et al., 2016.
All animal experiments were carried out under UK home office regulations. Dorsal column lesions were performed on adult male rats as previously described (see, e.g., Bradbury et al., 2002). […] The pumps were placed subcutaneously and connected to a brain infusion catheter (Alzet™), which was inserted into the lateral ventricle (Bregma coordinates: rostrocaudal: −0.8 mm, mediolateral: −1.5 mm and dorsoventral: −4.5 mm). […] The dose was based previous in vivo studies on activation of RARα and RARβ signalling in the adult rat brain (see, e.g., Goncalves et al., 2009). Animals which underwent behavioural studies and subsequent tracing (n=6 per treatment) were kept for six weeks before being sacrificed with a lethal injection of pentobarbital and transcardially perfused with 4% PFA. Dissected tissue (cervical and lumbar spinal cord) was processed for immunofluorescence.
Descendent corticospinal tract axons were anterogradely traced after the dorsal column crush was performed by injected BDA (10% in PBS, Mw10K from Molecular Probes) into the motor cortex as previously described (see, e.g., Yip et al., 2006). Six injections were done in the right cortex (0.5 μL of BDA/injection point). Animals (n=6 per treatment) were perfused and the spinal cord was transferred to PBS (plus 0.1% sodium azide) and embedded in gelatin (10%, 300 bloom; Sigma, Poole, UK). Gelatin blocks were hardened in 4% paraformaldehyde, and 40 μm free-floating serial transverse sections were cut on a vibratome (Leica, Nussloch, Germany) and collected in 24-well plates containing PBS (plus 0.1% sodium azide).
BDA was detected using the tyramide amplification kit (Perkin-Elmer) coupled with extra-avidin-FITC (Amersham Pharmacia Biotech, UK, 1:500). All BDA-labelled fibres observed within a 1-mm square grid were counted at measured intervals from 5 mm above to 5 mm below the lesion site by an experimenter, blinded to treatment.
CST neurons were labelled by retrograde tracing injecting 2 μL of 5% Fluorogold (FG, Molecular Probes) 2 mm deep into the cervical spinal cord (C3-C4) at a rate of 0.5 μL/minute (n=3 rats per group). In sham animals, FG was injected 0.5 mm bilateral to the medial line of spinal cord (1 μL per side), and in lesioned animals FG (2 μL) was injected into the injury. After 14 days, the cortices were fixed for 2 hours in 4% paraformaldehyde (PFA), embedded in OCT compound and stored frozen. Sagittal sections (12 μm) were cut and 4 sequential slides containing 2 sections from lateral 3.4-3.9 mm were taken for analysis (see, e.g., Paxinos and Watson, 2002).
Immunohistochemistry was carried out using anti-rabbit phospho-Akt (Cell Signalling technology, dilution of 1:100). Secondary antibody used was anti-rabbit Cy3 conjugated (Jackson, used at 1:1000). Images were captured at 100× magnification using a Roperscientific digital camera.
The behavioural tests were carried out as previously described (see, e.g., Bradbury et al., 2002). Rats (n=6 per treatment group) were first trained for two weeks before surgery to perform grid walk and beam walk; they were then tested by an observer blinded to the experimental treatment once a week for five weeks after lesion.

Data set [2] has as its system cerebellar neurons. The experiment in a line: Neurite outgrowth assay, cerebellar neurons in the presence of myelin / MAG. It counts as cell-based, rat. The settings on record: cerebellar neurons grown in the presence of myelin. The protocol:
(§1) Cerebellar neurons isolated from post-natal day 3 rat pups were cultured over monolayers of parental 3T3 cells in control media, or media supplemented with a recombinant MAG-Fc chimera (R&D Systems) used at a final concentration of 20 μg/mL MAG-Fc. The monolayers were established for 24 hours prior to addition of the neurons and the co-cultures were maintained for approximately 21 hours. Following careful fixation with 4% paraformaldehyde, the neurons were immuno-stained with a GAP-43 antibody (from Graham Wilkin, Imperial College), dilution of 1:500, and the mean length of the longest neurite per cell was measured for approximately 120-150 neurons as previously described (see, e.g., Williams et al., 2005). DRG and cortical explants were obtained from adult rats, they were cultured in cellogen as previously described (see, e.g., Corcoran and Maden, 1999). Three explants per treatment were used. Neurite outgrowth was assessed 3 days later by immunohistochemistry with NF200 (Sigma, dilution of 1:200). The average lengths of the neurites were measured using image pro plus software. Media consisted of DMEM-F12 (Invitrogen) containing N2 (Invitrogen) supplemented with glucose (33 mM) and glutamine (2 mM).

The test system of data set [3] is corticospinal tract (CST) of rats crushed at the C4 level. The following applies: in vivo; Agudo et al., 2010; cited from earlier work.
Data set [4] concerns rats with severed and re-implanted sensory roots at the level of the left forelimb. The data set is described as follows: Sensory roots of four DRG severed and re-implanted into the spinal cord, sticky tape tests. The settings on record: rat, after 5 weeks, 1 mg/kg three times a week. It counts as in vivo. The protocol:
In another example of nerve injury, the four sensory roots from each of four DRG at the level of the left forelimb were severed and re-implanted into the spinal cord.
The results are illustrated in Borthwick et al., 2016. […] Rats were treated with 1 mg/kg of the test compound or vehicle two days after lesion, and then three times a week for the period of the experiment. Error bars show SEM. ***P<0.001, students t test, n=3-4 rats for each treatment group. At weeks 3, 4, and 5, there was significant difference between the rats treated with RARβ agonist as compared to rats treated with other retinoid agonists and vehicle.

Data set [5] deals with cortical explants. The experiment in a line: Neurite outgrowth from cultured cortex of treated lesioned animals. It counts as cell-based, rat. The settings on record: cortex of lesioned rats treated in vivo; vehicle: did not grow. On the procedure:
When pieces of cortex from these RARβ agonist treated animals were cultured, neurite outgrowth was observed, in contrast to cortex from control lesioned animals.
as §1

The nature of data set [6]: Solubility studies, shake-flask method in 15 solvents. The format is physicochemical. The following applies: for solubility at 24 h: 20° C. The protocol: The solubility of BHBA-001 (characterised by XRPD as Form 1) was determined in 15 solvents to study the initial polymorphic behaviour. A shake-flask method was applied in which solid was added stepwise (e.g., 10 mg at a time) to a known amount of solvent (e.g., 3 mL). The solubility was confirmed visually. After the addition, the suspension/solution was held for 24 hours at 20° C. in order to check for slow dissolution or recrystallization. If the solid was not completely dissolved, the suspension was heated to 50° C. to encourage dissolution. The solvent was then removed by evaporation, in some cases, with the help of anti-solvent. The resulting solid was analysed using XRPD.

In data set [7] the target is T1, RARβ (Mus musculus, UniProt P22605).
T1 construct: expressed in transfected cells; host or cells: COS-7
T1 sequence (P22605 210-444 limits assumed): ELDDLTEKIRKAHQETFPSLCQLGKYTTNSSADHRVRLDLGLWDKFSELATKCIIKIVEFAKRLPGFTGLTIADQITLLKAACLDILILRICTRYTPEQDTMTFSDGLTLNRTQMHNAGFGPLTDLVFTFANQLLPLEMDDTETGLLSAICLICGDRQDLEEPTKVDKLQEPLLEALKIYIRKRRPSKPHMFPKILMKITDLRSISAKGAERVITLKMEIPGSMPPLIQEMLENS
The experiment in a line: Transcriptional transactivation assay, gal4-RAR fusion receptor / luciferase reporter in COS-7 cells. The format is cell-based. The protocol: (§2) Transcriptional transactivation assays were performed with gal4 fusion receptor constructs, created using each of the RAR ligand binding domains of either mouse or human, co-transfected with the pFR-luc (Stratagene) reporter construct in COS-7 cells.
(§3) Briefly, on day 1, 96 well plates were seeded with 8000 cells per well then left to recover overnight. On day 2, the cells were co-transfected with 100 ng of reporter plasmid and 10 ng of the appropriate receptor plasmid per well using lipofectamine (Invitrogen). On day 3, the lipofectamine containing media was replaced by a DMEM without phenol red, followed by the addition of test compound dissolved in 1 μL of DMSO to each well's 100 μL total volume. Finally, on day 4, the cells were lysed and their luciferase substrate was provided by the BrightGlo™ reagent (Promega), the plates were then read on the MicroBeta TrLux™ (Perkin Elmer).
(§4) Data for test compounds are quoted as EC50 values. Where replicate data has been generated, the data are quoted as the mean EC50 from the separate experiments.
(In general: Reporter assays use an easily measured gene product as a stand-in for the process of interest.)

Data set [8] has as its target T2, RARβ (Homo sapiens, UniProt P10826).
T2 construct: expressed in transfected cells; host or cells: COS-7
T2 sequence (P10826 183-417 limits assumed): T1 sequence (P22605 210-444 limits assumed)
Described as above. The format is cell-based. The settings on record: Table 21. On the procedure:
as §2, §3, §4

The mark [9] stands for this setting: i.c.v. 180 ng/kg/day for 14 days.

For the molecule `COc1ccc(-c2ccc3cc(C(=O)O)ccc3c2)cc1C1(C)CCCCC1` [CD2019, 6-(4-methoxy-3-(1-methylcyclohexyl)phenyl)-2-naphthalenecarboxylic acid], in data set [1] (after 5 weeks), the “Behavioural tests (grid and beam task)” value is reported as “performed as well as non-lesioned animals”. The “BDA-labelled CST axons crossing the lesion site” value in data set [1] (after 5 weeks, vs vehicle (no axons across)) is recorded as “many axons were observed crossing the injury site”. In data set [1] (setting [9]), the “Time to functional recovery, beam task” value was 2 weeks post lesion and the “Time to functional recovery, grid task” value was found to be 4 weeks post lesion. Also, the “RARβ2 expression in the CST neuronal cell bodies” value in data set [1] (lateral ventricle for 2 weeks) is reported as “upregulation of RARβ2”. Further, the Neurite outgrowth entry in data set [2] is reported as “causes the outgrowth of neurites”. In addition, the “Phospho AKT in the injured CST neurons” value in data set [3] was “induced”. In data set [4], the “Behavioural test (sticky tape)” value is “performed as well as non-lesioned animals”. In addition, the “Axon growth from cultured adult cortex of treated animals” value in data set [5] is given as “did grow”.

The solubility is the dissolved amount per volume that the medium holds. A word on the EC50: it is the concentration that produces a half-maximal response. As for `Cc1ccc(C)c2oc(-c3nc(-c4ccc(C(=O)O)cc4)no3)cc12` [BHBA-001, 4-(5-(4,7-dimethylbenzofuran-2-yl)-1,2,4-oxadiazol-3-yl)benzoic acid], the “Behavioural test (sticky tape)” value in data set [4] is on record as “performed as well as non-lesioned animals”. Further, the “Solubility (in words)” value in data set [6] (in most solvents of the 15 tested) is “only poorly soluble”. The solubility at 24 h in data set [6] (organic solvent or mixture, thermodynamic from solid, 1-propanol, starting solid Form 1) was less than 3000 µg/mL; in data set [6] (organic solvent or mixture, thermodynamic from solid, 2-methyltetrahydrofuran, starting solid Form 1), 5000 to 10000 µg/mL (≈ 15 to 29.9 mM); in data set [6] (organic solvent or mixture, thermodynamic from solid, 2-propanol, starting solid Form 1) it was less than 3000 µg/mL; in data set [6] (organic solvent or mixture, thermodynamic from solid, acetic acid, starting solid Form 1), less than 4000 µg/mL; in data set [6] (organic solvent or mixture, thermodynamic from solid, acetonitrile, starting solid Form 1) it was less than 4000 µg/mL; in data set [6] (organic solvent or mixture, thermodynamic from solid, dichloromethane, starting solid Form 1) it was less than 3000 µg/mL. Besides, the solubility at 24 h in data set [6] (organic solvent or mixture, thermodynamic from solid, ethanol, starting solid Form 1) is less than 4000 µg/mL; in data set [6] (organic solvent or mixture, thermodynamic from solid, ethyl acetate, starting solid Form 1), less than 4000 µg/mL; in data set [6] (organic solvent or mixture, thermodynamic from solid, isopropyl acetate, starting solid Form 1) it was 4000 µg/mL (≈ 12 mM); in data set [6] (organic solvent or mixture, thermodynamic from solid, methyl tert-butyl ether, starting solid Form 1) it was less than 3000 µg/mL; in data set [6] (organic solvent or mixture, thermodynamic from solid, n-heptane, starting solid Form 1), less than 3000 µg/mL; in data set [6] (organic solvent or mixture, thermodynamic from solid, tetrahydrofuran (THF), starting solid Form 1), 9000 to 30000 µg/mL (≈ 26.9 to 89.7 mM). The solubility at 24 h in data set [6] (organic solvent or mixture, thermodynamic from solid, toluene, starting solid Form 1) was less than 3000 µg/mL; in data set [6] (thermodynamic from solid, water, starting solid Form 1), less than 3000 µg/mL. In addition, in data set [6] (organic solvent or mixture, thermodynamic from solid, acetone, at 50° C. (footnote), starting solid Form 1), the solubility is less than 3000 µg/mL. Also, the “Selectivity over RARγ” value in data set [7] (Mouse, Table 21) was 6-fold; in data set [8], 5-fold. In data set [7] (Table 20, mean of three or more determinations, species not given, value equals mouse value of Table 21), the EC50 is less than 2 nM. The “Selectivity over RARα” value in data set [8] is listed as 23-fold.
